Test results taken from US11207312B2, “Metallo-beta-lactamase inhibitors and methods of use thereof” (priority 2017, dated 2021).

Tests used:
NDM-1 = NDM-1 (Klebsiella pneumoniae, UniProt C7C422); test: biochemical; assay type: biochemical; details: CCF2-FA fluorescence assay, 2 hours at 25° C.
Summary of the method: (§1)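 Each enzyme (final 1 pM NDM-1, 2 pM IMP-1, 30 pM VIM-1) was incubated with test inhibitor (20 μM to 0.00063 μM) and 1.25 μM CCF2-FA for 2 hours at 25° C in zinc-supplemented phosphate buffer, pH 7. Fluorescence at 460 nm was then read and IC50 fitted with four parameters.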

IMP-1 = IMP-1 (Serratia marcescens, UniProt P52699); test: biochemical; details: CCF2-FA fluorescence assay, 2 hours at 25° C.; read-out: IMP1 IC50
Chain of IMP-1 (P52699 whole entry, looked up, species assumed): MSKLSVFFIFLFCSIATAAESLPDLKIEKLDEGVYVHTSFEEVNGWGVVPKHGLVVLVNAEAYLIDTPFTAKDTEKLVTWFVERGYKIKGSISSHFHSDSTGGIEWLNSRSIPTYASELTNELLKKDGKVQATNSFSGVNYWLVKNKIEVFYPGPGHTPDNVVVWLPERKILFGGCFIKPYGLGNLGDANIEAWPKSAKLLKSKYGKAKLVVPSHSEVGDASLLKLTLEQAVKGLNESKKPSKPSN
Summary of the method: as §1

VIM-1 = VIM-1 (Pseudomonas aeruginosa (strain ATCC 15692 / DSM 22644 / CIP 104116 / JCM 14847 / LMG 12228 / 1C / PRS 101 / PAO1), UniProt A0A0F7KYQ8); test: biochemical; details: CCF2-FA fluorescence assay, 2 hours at 25° C.; read-out: VIM1 IC50
Summary of the method: as §1

VIM-2 = VIM-2 (Escherichia coli, UniProt Q5U7L7); test: biochemical; details: CCF2-FA fluorescence assay; read-out: VIM2 IC50
[1] = tested on: Escherichia coli expressing NDM-1 (CLB30016); assay type: cell-based; details: with imipenem 1 μg/ml; 95% inhibition of bacterial growth
Summary of the method: (§2)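 Clinical MBL-producing strains grown overnight at 35° C, diluted 1:100 into CAMHB, then exposed to test compound with imipenem at 1 μg/ml for 22–24 h at 35° C. Absorbance read-out; MITC95 is the lowest compound concentration giving 95% growth inhibition with imipenem.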

[2] = tested on: Klebsiella pneumoniae expressing VIM-1 (IHMA599644); assay type: cell-based; details: with imipenem 1 μg/ml; 95% inhibition of bacterial growth
Summary of the method: as §2

[3] = tested on: Serratia marcescens expressing IMP-1 (CL5741); assay type: cell-based; details: with imipenem 1 μg/ml; 95% inhibition of bacterial growth
Summary of the method: as §2

[4] = tested on: P. aeruginosa MB9798 (efflux+, IMP-1 plasmid); details: for MB9798 MITC95 P. aeruginosa uM Efflux WT: efflux + (MB9798) strain, imipenem at 2 μg/mL, in the presence of a class A, C, D serine β-lactamase inhibitor closely related to relebactam; for Efflux ratio: fold difference between efflux+ (MB9798) and efflux− (MB9799) strains
Summary of the method: (§3)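 Isogenic P. aeruginosa PAO1 strains (efflux+ and multiple-efflux-pump-disrupted) carrying plasmid IMP-1, with inducible AmpC, tested by broth microdilution. Imipenem and/or ceftazidime fixed, usually at CLSI breakpoint, plus fixed class A/C β-lactamase inhibitor; titrated MBL inhibitor concentration restoring susceptibility recorded and compared between strains as efflux fold difference.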

[5] = tested on: P. aeruginosa MB9799 (efflux-, IMP-1 plasmid); assay type: cell-based, Pseudomonas aeruginosa; details: efflux − (MB9799) strain; imipenem at 2 μg/mL; in the presence of a class A, C, D serine β-lactamase inhibitor closely related to relebactam
Summary of the method: as §3

Chain of NDM-1 (C7C422 whole entry, looked up, species assumed): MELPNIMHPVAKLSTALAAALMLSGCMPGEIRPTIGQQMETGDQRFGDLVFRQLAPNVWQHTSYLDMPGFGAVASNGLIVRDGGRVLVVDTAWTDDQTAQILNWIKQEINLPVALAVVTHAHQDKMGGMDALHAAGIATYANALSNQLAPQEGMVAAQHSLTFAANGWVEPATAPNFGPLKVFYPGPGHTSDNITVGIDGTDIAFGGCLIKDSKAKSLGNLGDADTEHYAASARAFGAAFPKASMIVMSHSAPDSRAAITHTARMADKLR

SMILES	IC50 (NDM-1) [nM]	IC50 (IMP-1) [nM]	IC50 (VIM-1) [nM]	IC50 (VIM-2) [nM]	CLB30016 E. coli MITC95 NDM [1] [µM]	IHMA599644 K. pneumoniae MITC95 VIM [2] [µM]	CL5741 S. marcescens MITC95 IMP [3] [µM]	MB9798 MITC95 P. aeruginosa uM Efflux WT [4] [µM]	Efflux ratio [4]	MB9799 MITC95 P. aeruginosa uM Efflux Mutant [5] [µM]
NC[C@@H](O)CNS(=O)(=O)c1ccc(N2CCOC(CO)C2)c(-c2nn[nH]n2)c1S(N)(=O)=O (stereo partly drawn) [Example 20, N^1—((R)-3-amino-2-hydroxypropyl)-4-(2-(hydroxymethyl)morpholino)-3-(2H-tetrazol-5-yl)benzene-1,2-disulfonamide]	0.77	1.53	0.26	0.49	1.56	3.13	0.78	3.13	4.00	0.78
NC[C@@H](O)CNS(=O)(=O)c1ccc(N2C[C@H]3CNC[C@H]3C2)c(-c2nn[nH]n2)c1S(N)(=O)=O [Example 161, N1-((R)-3-amino-2-hydroxypropyl)-4-((3aR,6aS)-hexahydropyrrolo[3,4-c]pyrrol-2(1H)-yl)-3-(2H-tetrazol-5-yl)benzene-1,2-disulfonamide]	12.2	45.4	0.89	14.9	1.56	1.56	3.13	12.50	2.00	6.25
CC1(O)CCCN(c2ccc(S(=O)(=O)C3CNC3)c(S(N)(=O)=O)c2-c2nnn[nH]2)C1 (stereo not drawn) [Example 59, 6-(azetidin-3-ylsulfonyl)-3-(3-hydroxy-3-methylpiperidin-1-yl)-2-(1H-tetrazol-5-yl)benzenesulfonamide]	3.22	8.38	1.84	2.18	6.25	6.25	6.25	50.00	16.00	3.13
NC[C@@H](O)CNS(=O)(=O)c1ccc(N2CCC3CNCC3C2)c(-c2nnn[nH]2)c1S(N)(=O)=O (stereo partly drawn) [Example 141, N1-((R)-3-amino-2-hydroxypropyl)-4-(hexahydro-1H-pyrrolo[3,4-c]pyridin-5(6H)-yl)-3-(1H-tetrazol-5-yl)benzene-1,2-disulfonamide]	15.8	11.9	0.43	15.7	1.56	1.56	1.56	6.25	4.00	1.56
NCCCC1CCN(c2ccc(S(=O)(=O)NC[C@H](O)CN)c(S(N)(=O)=O)c2-c2nn[nH]n2)CC1 [Example 193, (R)-N1-(3-amino-2-hydroxypropyl)-4-(4-(3-aminopropyl)piperidin-1-yl)-3-(2H-tetrazol-5-yl)benzene-1,2-disulfonamide]	0.48	0.67	0.075	0.75	1.56	1.56	1.56	0.78	1.00	0.78
NS(=O)(=O)c1c(S(=O)(=O)N[C@@H]2CCNC2)ccc(N2CCNC(CO)CC2)c1-c1nn[nH]n1 (stereo partly drawn) [Example 127, 4-(5-(hydroxymethyl)-1,4-diazepan-1-yl)-N1-((R)-pyrrolidin-3-yl)-3-(2H-tetrazol-5-yl)benzene-1,2-disulfonamide]	18.9	33.7	1.25	24.6	0.39	0.78	0.78	3.13	4.00	0.78
NC[C@@H](O)CNS(=O)(=O)c1ccc(N2CCN(CCCO)CC2)c(-c2nnn[nH]2)c1S(N)(=O)=O [Example 40, (R)-N1-(3-amino-2-hydroxypropyl)-4-(4-(3-hydroxypropyl)piperazin-1-yl)-3-(1H-tetrazol-5-yl)benzene-1,2-disulfonamide]	3.07	3.56	5.87	7.36	0.05	0.78	0.10	1.56	2.00	0.78
NS(=O)(=O)c1c(S(=O)(=O)N[C@@H]2CCNC2)ccc(N2CC3(CCNCC3)C2)c1-c1nnn[nH]1 [Example 113, 4-(2,7-diazaspiro[3.5]non-2-yl)-N1-[(3R)-pyrrolidin-3-yl]-3-(1H-tetrazol-5-yl)benzene-1,2-disulfonamide]	13.7	33.1	0.81	119	0.78	1.56	1.56	6.25	8.00	0.78
NS(=O)(=O)c1c(S(=O)(=O)N[C@@H]2CCNC2)ccc(N2CCN(C(=O)CO)CC2)c1-c1nnn[nH]1 [Example 109, 4-[4-(hydroxyacetyl)piperazin-1-yl]-N1-[(3R)-pyrrolidin-3-yl]-3-(1H-tetrazol-5-yl)benzene-1,2-disulfonamide]	0.51	2.21	0.43	1.9	3.13	6.25	3.13	3.13	1.00	3.13
COC1(CN(C)C)CN(c2ccc(S(=O)(=O)N[C@@H]3CCNC3)c(S(N)(=O)=O)c2-c2nnn[nH]2)C1 [Example 116, 4-{3-[(dimethylamino)methyl]-3-methoxyazetidin-1-yl}-N1-[(3R)-pyrrolidin-3-yl]-3-(1H-tetrazol-5-yl)benzene-1,2-disulfonamide]	29.3	4.62	6.97	63.9	1.56	3.13	1.56	3.13	2.00	1.56
NCCNS(=O)(=O)C1CCN(c2ccc(S(=O)(=O)NC[C@H](O)CN)c(S(N)(=O)=O)c2-c2nn[nH]n2)CC1 [Example 131, (R)-N1-(3-amino-2-hydroxypropyl)-4-(4-(N-(2-aminoethyl)sulfamoyl)piperidin-1-yl)-3-(2H-tetrazol-5-yl)benzene-1,2-disulfonamide]	0.79	0.87	0.11	1.05	0.39	1.56	0.78	0.78	1.00	0.78
NCCC1CCN(c2ccc(S(=O)(=O)N[C@@H]3CCNC3)c(S(N)(=O)=O)c2-c2nn[nH]n2)CC1 [Example 16, (R)-4-(4-(2-aminoethyl)piperidin-1-yl)-N^1-(pyrrolidin-3-yl)-3-(2H-tetrazol-5-yl)benzene-1,2-disulfonamide]	0.72	1.85	0.08	1.61	1.17	1.56	1.56	0.78	1.00	0.78
